Read-outs that look alike come from different tables or passages of the source.
Key:
ATF4 = ATF4 expression inhibition assay (thapsigargin-stressed HEK293T cells, western blot); format: cell-based; details: Homo sapiens, HEK-293T; for IC50: 3 h with 100 nM Tg, test compound 1 nM to 1 μM; for inhibition at 0.1 µM: 3 h with 100 nM thapsigargin (Tg) and 100 nM test compound; for inhibition at 0.1 µM / inhibition at 1 µM: Tg alone 0%, untreated 100%; for inhibition at 1 µM: 3 h with 100 nM thapsigargin (Tg) and 1 μM test compound
Experimental: HEK293T cells were maintained at 37° C. and 5% CO2 in Dulbecco's Modified Eagle's Media (DMEM) supplemented with 10% fetal bovine serum (FBS), 2 mM L-glutamine, 100 U/ml penicillin, and 100 μg/ml streptomycin. […] Cells without treatment or cells treated with Tg alone were used as controls.
After 3 hours of treatment with Tg and the test compound, cells were lysed with SDS-PAGE lysis buffer. Lysates were transferred to 1.5 ml tubes and sonicated for 3 min, and total protein amounts were quantified using BCA Protein Assay Kit (Pierce). Equal amount of proteins were loaded on SDS-PAGE gels. Proteins were transferred onto 0.2 μm PVDF membranes (BioRad) and probed with primary antibodies diluted in Tris-buffered saline supplemented with 0.1% Tween 20 and 3% bovine serum albumin.
(§1) ATF4 (11815) antibody was used as primary antibody (Cell Signaling Technologies). A horseradish peroxidase (HRP)-conjugated secondary antibody (Rockland) was employed to detect immune-reactive bands using enhanced chemiluminescence (ECL Western Blotting Substrate, Pierce). Quantification of protein bands was done by densitometry using ImageJ.
Percentages of ATF4 inhibition after induction with Tg in the presence of 100 nM or 1 μM of certain test compounds are shown in Table 2 and FIG. 1. Percentage of ATF4 inhibition was calculated as the percent reduction normalized to Tg treatment (0% inhibition) and untreated cells (100% inhibition). Also shown in Table 2 is the calculated IC50 for the test compounds. […] Accordingly, inhibition of ATF4 expression as a result of the test compound indicates suppression of the ISR pathway.

CHO cells = test: Protein translation assay (puromycin incorporation in CHO cells, unstressed or Tg-stressed); format: cell-based, Chinese hamster; details: Cricetulus griseus, media alone 100%; for activity at 0.1 µM: read-out: % Recovery of protein expression (100 nM test compound)
Experimental: CHO cells were maintained at 37° C. and 5% CO2 in DMEM supplemented with 10% fetal bovine serum (FBS), 2 mM L-glutamine, 100 U/ml penicillin, and 100 μg/ml streptomycin. After reaching 80% of confluence, cells were detached and seeded on 6 well plates in complete media, allowed to recover overnight and treated for 2 hours with 1 μM of the test compound (to assess protein synthesis levels in unstressed condition), or for 1 hour with 100 nM and 1 μM of the test compound and then co-treated with 300 nM Tg and 100 nM and 1 μM of the test compound (to assess the recovery of protein synthesis in a stressed condition). Cells treated with Tg alone were used as controls.
After the 2 hours treatments, media were replaced by adding 10 μg/ml puromycin (Sigma Aldrich) in complete media for 30 min. Media were removed and cells were lysed with SDS-PAGE lysis buffer. Lysates were transferred to 1.5 ml tubes and sonicated for 3 minutes and total protein amount were quantified using BCA Protein Assay Kit (Pierce). Equal amount of protein (30 μg) was loaded on SDS-PAGE gels. Proteins were transferred onto 0.2 μm PVDF membranes (BioRad) and probed with primary antibodies diluted in Tris-buffered saline supplemented with 0.1% Tween 20 and 3% bovine serum albumin.
as §1, with “Puromycin (12D10)” for “ATF4 (11815)”, “(Merck Millipore).” for “(Cell Signaling Technologies).”, “HRP-conjugated” for “horseradish peroxidase (HRP)-conjugated”
Percent increase of protein synthesis in unstressed cells (without Tg treatment) in the presence of media alone or certain test compounds is shown in Table 3 and FIG. 2. The percentage levels were normalized to the media alone condition, which correspond to 100% protein synthesis.
Percent recovery of protein synthesis in stressed cells (with Tg treatment) due to the test compounds at 100 nM or 1 μM is shown in FIGS. 3A and 3B, respectively, and in Table 3. The levels were normalized to the media alone and to Tg alone conditions, which correspond to 100% and 0% respectively.

[1] = CHO cells stressed with 300 nM Tg, Tg alone 0%
[2] = CHO cells stressed with 300 nM Tg, Tg alone 0%, read-out: % Recovery of protein expression (1 μM test compound)
[3] = unstressed CHO cells, 2 h, read-out: % Protein expression relative to untreated (1 μM test compound)

IC50 (ATF4) [nM]	Structure (SMILES)	inhibition at 0.1 µM (ATF4) [%]	inhibition at 1 µM (ATF4) [%]	activity at 0.1 µM (CHO cells; [1]) [%]	activity at 1 µM (CHO cells; [2]) [%]	activity at 1 µM (CHO cells; [3]) [%]
27	O=C(COc1ccc(Cl)c(F)c1)NC1CCN(CC(O)COc2ccc(Cl)c(F)c2)CC1 (single isomer, unassigned; (-)) [Compound 26, (−)-2-(4-chloro-3-fluorophenoxy)-N-(1-(3-(4-chloro-3-fluorophenoxy)-2-hydroxypropyl)piperidin-4-yl)acetamide]	91	97	34.2	176	112
–	O=C(N[C@H]1CC[C@H](NCC(O)COc2ccc(Cl)c(F)c2)CC1)c1cc2cc(Cl)ccc2o1 (single isomer, unassigned; (-)) [Compound 155, (−)-trans-5-chloro-N-(4-((3-(4-chloro-3-fluorophenoxy)-2-hydroxypropyl)amino)cyclohexyl)benzofuran-2-carboxamide]	60	75	68.5	190	263
23.8	O=C(COc1ccc(Cl)cc1)N[C@H]1CC[C@H](NC(=O)C2CNc3cc(Cl)ccc3O2)CC1 (single isomer, unassigned; (-)) [Compound 157, (−)-trans-6-chloro-N-(4-(2-(4-chlorophenoxy)acetamido)cyclohexyl)-3,4-dihydro-2H-benzo[b][1,4]oxazine-2-carboxamide]	96	100	39.7	97.3	118
353	O=C(COc1ccc(Cl)cc1)N[C@H]1CC[C@H](NCC(O)COc2ccc(Cl)cc2)CC1 (stereo partly drawn) [Compound 1, trans-2-(4-chlorophenoxy)-N-(4-((3-(4-chlorophenoxy)-2-hydroxypropyl)amino)cyclohexyl)acetamide]	0	71	63.8	160	152
–	O=C(COc1ccc(Cl)c(F)c1)N[C@H]1CC[C@H](NCC(O)COc2ccc(Cl)cc2)CC1 (stereo partly drawn) [Compound 10, trans-2-(4-chloro-3-fluorophenoxy)-N-(4-((3-(4-chlorophenoxy)-2-hydroxypropyl)amino)cyclohexyl)acetamide]	0	11	30.6	127	–
57.2	O=C(COc1ccc(Cl)c(F)c1)NC1CCN(CC(O)COc2ccc(Cl)c(F)c2)CC1 (centres unmarked) [Compound 13, 2-(4-chloro-3-fluorophenoxy)-N-(1-(3-(4-chloro-3-fluorophenoxy)-2-hydroxypropyl)piperidin-4-yl)acetamide]	57	93	49.6	159	94
9.52	O=C(COc1ccc(Cl)c(F)c1)N[C@H]1CC[C@H](NC(=O)c2cc3cc(Cl)ccc3o2)CC1 [Compound 17, trans-5-chloro-N-(4-(2-(4-chloro-3-fluorophenoxy)acetamido)cyclohexyl)benzofuran-2-carboxamide]	95	98	87	172	93.2
–	O=C(COc1ccc(Cl)c(F)c1)N[C@H]1CC[C@H](NC(=O)C2Cc3cc(Cl)ccc3O2)CC1 (stereo partly drawn) [Compound 19, trans-5-chloro-N-(4-(2-(4-chloro-3-fluorophenoxy)acetamido)cyclohexyl)-2,3-dihydrobenzofuran-2-carboxamide]	94	100	14.1	116	–
–	O=C(NC1CCN(CC(O)COc2ccc(Cl)c(F)c2)CC1)C1Cc2cc(Cl)ccc2O1 (centres unmarked) [Compound 20, 5-chloro-N-(1-(3-(4-chloro-3-fluorophenoxy)-2-hydroxypropyl)piperidin-4-yl)-2,3-dihydrobenzofuran-2-carboxamide]	14	64	38.6	93.9	–
–	O=C(NC1CCN(CC(O)COc2ccc(Cl)c(F)c2)CC1)c1ccc2cc(Cl)ccc2c1 (centres unmarked) [Compound 21, 6-chloro-N-(1-(3-(4-chloro-3-fluorophenoxy)-2-hydroxypropyl)piperidin-4-yl)-2-naphthamide]	54	78	70.5	182	–
103	O=C(NC1CCN(CC(O)COc2ccc(Cl)c(F)c2)CC1)c1ccc2cc(Cl)ccc2n1 (centres unmarked) [Compound 22, 6-chloro-N-(1-(3-(4-chloro-3-fluorophenoxy)-2-hydroxypropyl)piperidin-4-yl)quinoline-2-carboxamide]	21	81	67.3	264	170
2.1	O=C(COc1ccc(Cl)c(F)c1)N[C@H]1CC[C@H](NC(=O)c2ccc3cc(Cl)ccc3n2)CC1 [Compound 23, trans-6-chloro-N-(4-(2-(4-chloro-3-fluorophenoxy)acetamido)cyclohexyl)quinoline-2-carboxamide]	97	99	79.2	176	120
–	O=C(COc1ccc(Cl)c(F)c1)N[C@H]1CC[C@H](NC(=O)c2cc3ccncc3o2)CC1 [Compound 24, trans-N-(4-(2-(4-chloro-3-fluorophenoxy)acetamido)cyclohexyl)furo[2,3-c]pyridine-2-carboxamide]	18	54	11.8	24.3	–
–	CC1(C)CC(NC(=O)COc2ccc(Cl)c(F)c2)CC(C)(C)N1CC(O)COc1ccc(Cl)c(F)c1 (centres unmarked) [Compound 25, 2-(4-chloro-3-fluorophenoxy)-N-(1-(3-(4-chloro-3-fluorophenoxy)-2-hydroxypropyl)-2,2,6,6-tetramethylpiperidin-4-yl)acetamide]	0	0	11.4	22.9	–

Structure (SMILES)	IC50 (ATF4) [nM]	inhibition at 0.1 µM (ATF4) [%]	inhibition at 1 µM (ATF4) [%]	activity at 0.1 µM (CHO cells; [1]) [%]	activity at 1 µM (CHO cells; [2]) [%]	activity at 1 µM (CHO cells; [3]) [%]
O=C(COc1ccc(Cl)c(F)c1)N[C@H]1CC[C@H](NCC(O)COc2ccc(Cl)c(F)c2)CC1 (stereo partly drawn) [Compound 2, trans-2-(4-chloro-3-fluorophenoxy)-N-(4-((3-(4-chloro-3-fluorophenoxy)-2-hydroxypropyl)amino)cyclohexyl)acetamide]	163	40	56	42.5	135	136
O=C(COc1ccc(Cl)cc1)NC1CCN(CC(O)COc2ccc(Cl)cc2)CC1 (centres unmarked) [Compound 5, 2-(4-chlorophenoxy)-N-(1-(3-(4-chlorophenoxy)-2-hydroxypropyl)piperidin-4-yl)acetamide]	170	42	94	64.9	189	130

— patent publication US11230542B2, “Inhibitors of integrated stress response pathway” (Praxis Biotech LLC, priority 2017, dated 2022)
